Consider 5 compounds from patent publication US11110095B2, “Pyrimidine compounds as JAK kinase inhibitors” (THERAVANCE BIOPHARMA R&D IP, LLC, priority 2016, dated 2021).

“Also recorded” adds a separate entry of the source.

A short description of data set [1]: Colon pharmacokinetics in rats. Format: in vivo, Sprague Dawley rats. To be noted: rat, oral administration (summary statement).
Experimental: The test compound was formulated in 0.5% methyl-cellulose in water and dosed via oral gavage at 3.2 mg/kg and 100 mg/kg to Sprague Dawley rats. At various time points (typically 0.5, 1, 3, 6, 24 hr) post dosing, blood samples were removed via cardiac puncture and intact colons were excised from the rats. Blood samples were centrifuged at 1500×g for 15 min to collect plasma. Colons were washed with ice cold phosphate buffered saline (PBS), weighed, and homogenized at a dilution of 1:10 in PBS. Plasma and colon levels of test compound were determined by LC-MS analysis against analytical standards constructed into a standard curve in the test matrix. A colon to plasma ratio was determined as the ratio of the colon AUC to the plasma AUC in μg hr/g.
Data set [2] relates to oxazolone-induced colitis. The data set is described as follows: Mouse model of oxazolone-induced colitis. To be noted: mice (summary statement). Format: in vivo, BALB/C mice. As for the experimental part:
Oxazolone-induced colitis is an experimental model that has a histological resemblance to human ulcerative colitis (Heller et al. […], 2002, 17, 629-638). Adult BALB/C mice from Harlan were used in the assay. On day 1, animals were lightly anesthetized with isoflurane and the hairs between the shoulder were carefully removed before oxazolone (4%, 150 μL, 4:1 acetone: olive oil formulation) or vehicle solution was slowly applied for skin sensitization. Seven days after skin sensitization, the mice were fasted overnight, anesthetized with isoflurane inhalation, and a 1 mL syringe equipped with a 3.5-F catheter, filled with oxazolone solution, was inserted carefully about 4 cm into the colon of the mouse. Following insertion, 50 μL of the oxazolone solution (1%, 1:1 ethanol:water formulation) was injected very slowly (over 30 sec using an injection pump) into the colon. […] Two-day post oxazolone intrarectal challenge, the Disease Activity Index (DAI) was assessed by treatment-blinded experimenters for each mouse according to the criteria score: stool consistency score (0, normal; 2, loose; 4, diarrhea), gross bleeding score (0, absence; 2, blood tinged; 4, presence), and weight loss score (0, none; 1, 1%-5%; 2, 5%-10%; 3, 10%-20%; 4, more than 20%); DAI=average of (stool consistency score+gross bleeding score+weight loss score). […]

For data set [3], the system named is splenic NK, B and T cells. To be noted: mouse, in vivo; for B and T cell populations (spleen): po. As for the experimental part: Depletion of mouse splenic cells is an experimental model of immunosuppression (Kudlacz et al., Am. J. of Transplantation, 2004, 4, 51-57). The compound of Example 2 was assessed in the mouse splenic cell model following the same treatment paradigm as that used in the oxazolone-induced colitis model (Assay 8).
The compound (1, 10 and 100 mg/kg, BID) and tofacitinib (30 and 60 mg/kg, BID) as a positive control were dosed orally for three days to naïve mice. Spleens were harvested 1 h post last dose and crushed immediately for cell subtype staining. Prior to fixation, fluorophore-labelled antibodies for CD19 (FITC; B cells), CD3e (PE; pan T cells) and DX5 (APC; NK cells) were incubated with splenocyte samples from each animal to allow for simultaneous, multiple subtype % analysis on the flow cytometer. The number of total spleen cells for each animal was measured by Scepter™ 2.0 Handheld Automated Cell Counter.
The absolute number of lymphocyte subtype population (e.g., splenic B, T and NK cells) was calculated from the percentage of each subtype times total spleen cells for each animal. A one way ANOVA, with Dunnett's post hoc test, was used to compare the splenic lymphocytes number of the vehicle and test compound groups. The a level was set at p<0.05. Data were presented as the mean±SEM for each group.

Data set [4] concerns TPA-induced increase in ear thickness. As to the kind of experiment: Topical TPA-induced irritant contact dermatitis model in mice. The class given is in vivo, Balb/c mice. To be noted: mouse, topical 30-3000 μg per ear, 6 hours after TPA. As to the method: The objective of this assay is to assess the anti-inflammatory effect in a model of acute dermatitis of test compounds being studied for cutaneous inflammatory conditions such as atopic dermatitis (Dong et al., J Pharmacol Exp Ther, 2013, 344, 436-446).
Topical dermal application of phorbol ester 12-O-tetradecanoylphorbol-13-acetate (TPA) in mice causes an inflammatory response that is characterized by edema and neutrophil influx at the early phase (2-24 h) and by epidermal cell proliferation at the later phase (24-48 h) (Griffiths et al., Agents and Actions, 1988, 25, 344-351). Female Balb/c mice were topically administered with either vehicle (1:7 DMSO:acetone) or 20 μL of a solution of TPA (2.5 μg) in vehicle on each ear. At 30 min before and 15 min after TPA administration, either vehicle or the compound of Example 2 at doses of 30, 100, 300, 1000, and 3000 μg in vehicle was applied topically to each ear. The degree of inflammation was assessed as the change in ear thickness at 6 hours after TPA application.

Data set [5] deals with JAK3 (Homo sapiens (Human), UniProt P52333). The data set is described as follows: LanthaScreen JAK biochemical assay, JAK3. A general note: In TR-FRET formats the signal depends on donor and acceptor labels being close together.
Experimental: A panel of four LanthaScreen JAK biochemical assays (JAK1, 2, 3 and Tyk2) were carried in a common kinase reaction buffer (50 mM HEPES, pH 7.5, 0.01% Brij-35, 10 mM MgCl2, and 1 mM EGTA). Recombinant GST-tagged JAK enzymes and a GFP-tagged STAT1 peptide substrate were obtained from Life Technologies.
Serially diluted compounds were pre-incubated with each of the four JAK enzymes and the substrate in white 384-well microplates (Corning) at ambient temperature for 1h. ATP was subsequently added to initiate the kinase reactions in 10 μL total volume, with 1% DMSO. […] The plates were allowed to incubate at ambient temperature for 1h before being read on the EnVision reader (Perkin Elmer).
For dose-response analysis, percent inhibition data were plotted vs. compound concentrations, and IC50 values were determined from a 4-parameter robust fit model with the Prism software (GraphPad Software). Results were expressed as pIC50 (negative logarithm of IC50) and subsequently converted to pKi (negative logarithm of dissociation constant, Ki) using the Cheng-Prusoff equation.
Data set [6] can be described thus: Dynamic moisture sorption assessment. Format: physicochemical. The conditions noted are these: 5% to 90% relative humidity; for weight gain: 25° C. As for the experimental part:
Dynamic moisture sorption (DMS) measurement was performed using a VTI atmospheric microbalance, SGA-100 system (VTI Corp., Hialeah, Fla. 33016). A weighed sample was used and the humidity was lowest possible value (close to 0% RH) at the start of the analysis. The DMS analysis consisted of an initial drying step (0% RH) for 120 minutes, followed by two cycles of sorption and desorption with a scan rate of 5% RH/step over the humidity range of 5% RH to 90% RH. The DMS run was performed isothermally at 25° C.

JAK3, sequence (P52333 whole entry): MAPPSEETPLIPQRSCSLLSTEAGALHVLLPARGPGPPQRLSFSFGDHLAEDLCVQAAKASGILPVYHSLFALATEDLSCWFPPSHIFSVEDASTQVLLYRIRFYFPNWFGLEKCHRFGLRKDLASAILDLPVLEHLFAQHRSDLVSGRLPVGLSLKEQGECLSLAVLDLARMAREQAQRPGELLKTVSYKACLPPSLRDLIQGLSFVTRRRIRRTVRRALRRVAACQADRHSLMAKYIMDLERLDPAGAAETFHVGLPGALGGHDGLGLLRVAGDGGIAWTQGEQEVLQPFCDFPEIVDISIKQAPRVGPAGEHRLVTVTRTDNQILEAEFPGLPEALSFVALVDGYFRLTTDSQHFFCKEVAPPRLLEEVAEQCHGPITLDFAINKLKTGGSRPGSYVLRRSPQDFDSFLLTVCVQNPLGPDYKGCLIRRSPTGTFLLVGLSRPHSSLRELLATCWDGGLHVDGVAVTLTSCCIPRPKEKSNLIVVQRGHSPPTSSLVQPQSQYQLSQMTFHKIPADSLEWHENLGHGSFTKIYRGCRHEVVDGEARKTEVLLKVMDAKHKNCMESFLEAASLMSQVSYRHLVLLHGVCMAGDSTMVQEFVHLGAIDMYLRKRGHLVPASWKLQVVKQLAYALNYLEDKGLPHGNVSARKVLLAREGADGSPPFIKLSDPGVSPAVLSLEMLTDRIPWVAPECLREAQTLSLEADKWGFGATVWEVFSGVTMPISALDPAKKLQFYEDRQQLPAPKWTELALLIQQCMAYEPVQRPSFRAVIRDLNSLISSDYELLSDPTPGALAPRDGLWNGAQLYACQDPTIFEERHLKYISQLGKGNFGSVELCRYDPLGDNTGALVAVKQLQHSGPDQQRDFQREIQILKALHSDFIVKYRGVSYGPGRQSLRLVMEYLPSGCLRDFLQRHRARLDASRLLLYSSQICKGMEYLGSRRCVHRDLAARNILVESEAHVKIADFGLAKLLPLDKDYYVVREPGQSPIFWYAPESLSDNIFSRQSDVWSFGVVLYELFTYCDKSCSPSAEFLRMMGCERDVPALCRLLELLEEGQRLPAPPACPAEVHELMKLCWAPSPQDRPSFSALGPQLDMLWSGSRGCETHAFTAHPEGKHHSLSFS

Take `COc1cc(Nc2cc(CO)[nH]n2)nc(N(C)[C@@H]2C[C@H]3CCC[C@@H](C2)N3S(=O)(=O)N2CC(C#N)C2)n1` [Example 2, 1-(((1R,3s,5S)-3-((4-((5-(Hydroxymethyl)-1H-pyrazol-3-yl)amino)-6-methoxypyrimidin-2-yl)(methyl)amino)-9-azabicyclo[3.3.1]nonan-9-yl)sulfonyl)azetidine-3-carbonitrile]: the “ratio of exposure in the colon to exposure in plasma” value in data set [1] is given as “greater than 250”. Besides, the “activity in the oxazolone-induced colitis model” value in data set [2] is “demonstrated activity”. Further, in data set [3], the effect of immunosuppression entry is “minimal effect of immunosuppression”; the “B and T cell populations (spleen)” value is recorded as “No treatment effect”. For the same compound, in data set [4], the “inhibition of TPA-induced increase in ear thickness” value was “dose- and concentration-dependent effect; also recorded: dose- and concentration-dependent inhibition”.

In the case of `COc1cc(Nc2cc(CO)[nH]n2)nc(N(C)[C@@H]2C[C@H]3CCC[C@@H](C2)N3C(=O)C(F)F)n1` [Example 9, 2,2-difluoro-1-((1R,3s,5S)-3-((4-((5-(hydroxymethyl)-1H-pyrazol-3-yl)amino)-6-methoxypyrimidin-2-yl)(methyl)amino)-9-azabicyclo[3.3.1]nonan-9-yl)ethan-1-one], the “JAK 3 (pKi)” value in data set [5] is “D (D represents a pKi value between 7.5 and 8 (Ki between 31.6 nM and 10 nM))”.

With `COc1cc(Nc2cc(CO)[nH]n2)nc(N(C)[C@@H]2C[C@H]3CCC[C@@H](C2)N3S(=O)(=O)N2CC(C#N)C2)n1` [Form I, 1-(((1R,3s,5S)-3-((4-((5-(hydroxymethyl)-1H-pyrazol-3-yl)amino)-6-methoxypyrimidin-2-yl)(methyl)amino)-9-azabicyclo[3.3.1]nonan-9-yl)sulfonyl)azetidine-3-carbonitrile], in data set [6], the hygroscopicity entry is “non-hygroscopic”. Moreover, the weight gain result in data set [6] and in data set [6] (listed as Crystalline 1-((1R,3s,5S)-3-((4-((5-(hydroxymethyl)-1H-pyrazol-3-yl)amino)-6-me)))) was “less than 0.4%” each time.

For `COc1cc(Nc2cc(CO)[nH]n2)nc(N(C)[C@@H]2C[C@H]3CCC[C@@H](C2)N3S(=O)(=O)N2CC(C#N)C2)n1` [Form II, 1-(((1R,3s,5S)-3-((4-((5-(hydroxymethyl)-1H-pyrazol-3-yl)amino)-6-methoxypyrimidin-2-yl)(methyl)amino)-9-azabicyclo[3.3.1]nonan-9-yl)sulfonyl)azetidine-3-carbonitrile], in data set [6], the weight gain result was “about 1.2%”.

As to `C[C@@H]1CCN(C(=O)CC#N)C[C@@H]1N(C)c1ncnc2[nH]ccc12` [tofacitinib, reference compound], the “B and T cell populations (spleen)” value in data set [3] is recorded as “No treatment effect”.
